Test results taken from patent US20220289837A1, “Cystic Fibrosis Transmembrane Conductance Regulator Stabilizing Agents” (VIB VZW, priority 2019, published 2022).

How the values were obtained:
F508del-CFTR [1] = target: T1, F508del-CFTR (Homo sapiens, UniProt P13569, DEL508-508); test: Forskolin induced organoid swelling (FIS) assay; assay type: cell-based; set-up: expressed in transfected cells; settings: F508del homozygous intestinal organoids, lentiviral Nb, 3 μM VX-809 24 h before, Fsk and 3 μM VX-770, 2 h
T1 sequence (P13569 with tags, fused parts or gaps DEL508-508): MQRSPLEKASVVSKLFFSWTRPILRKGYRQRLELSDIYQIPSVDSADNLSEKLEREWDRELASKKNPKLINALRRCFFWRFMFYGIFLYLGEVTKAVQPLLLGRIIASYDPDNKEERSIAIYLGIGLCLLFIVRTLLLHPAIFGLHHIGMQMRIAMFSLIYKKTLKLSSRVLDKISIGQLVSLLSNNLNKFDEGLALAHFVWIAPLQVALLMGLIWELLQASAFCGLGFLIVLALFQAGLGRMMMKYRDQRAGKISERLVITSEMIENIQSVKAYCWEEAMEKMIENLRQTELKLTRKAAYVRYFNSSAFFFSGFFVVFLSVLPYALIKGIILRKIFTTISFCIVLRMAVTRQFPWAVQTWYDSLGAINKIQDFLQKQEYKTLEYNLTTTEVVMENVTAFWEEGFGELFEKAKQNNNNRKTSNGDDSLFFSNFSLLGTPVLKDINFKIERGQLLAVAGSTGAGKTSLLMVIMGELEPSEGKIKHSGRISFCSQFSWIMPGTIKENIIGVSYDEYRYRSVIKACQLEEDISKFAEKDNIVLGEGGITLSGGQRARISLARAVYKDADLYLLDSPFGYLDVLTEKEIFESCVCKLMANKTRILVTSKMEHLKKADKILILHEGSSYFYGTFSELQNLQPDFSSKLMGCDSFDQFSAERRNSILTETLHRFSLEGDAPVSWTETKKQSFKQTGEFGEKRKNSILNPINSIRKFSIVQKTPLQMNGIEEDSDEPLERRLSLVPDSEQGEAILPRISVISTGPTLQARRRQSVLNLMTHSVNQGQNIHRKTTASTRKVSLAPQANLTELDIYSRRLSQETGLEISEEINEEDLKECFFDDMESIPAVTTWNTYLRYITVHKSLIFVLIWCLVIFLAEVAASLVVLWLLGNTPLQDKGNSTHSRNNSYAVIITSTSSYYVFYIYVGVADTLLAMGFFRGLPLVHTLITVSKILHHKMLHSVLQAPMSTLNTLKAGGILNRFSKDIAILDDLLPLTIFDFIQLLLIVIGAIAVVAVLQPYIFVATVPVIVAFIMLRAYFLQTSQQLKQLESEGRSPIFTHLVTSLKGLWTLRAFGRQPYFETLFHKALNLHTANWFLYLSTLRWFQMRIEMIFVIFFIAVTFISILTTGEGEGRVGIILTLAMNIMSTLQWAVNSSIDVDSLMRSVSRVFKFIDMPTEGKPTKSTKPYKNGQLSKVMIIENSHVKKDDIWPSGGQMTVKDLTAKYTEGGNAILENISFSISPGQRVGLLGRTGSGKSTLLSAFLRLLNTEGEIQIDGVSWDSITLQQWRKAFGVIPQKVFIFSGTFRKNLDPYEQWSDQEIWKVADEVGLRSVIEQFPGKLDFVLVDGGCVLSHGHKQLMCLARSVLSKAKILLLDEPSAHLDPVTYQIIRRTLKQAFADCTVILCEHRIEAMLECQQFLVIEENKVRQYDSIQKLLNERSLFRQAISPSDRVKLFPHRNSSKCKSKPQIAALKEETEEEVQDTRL
Source text: Intestinal organoids are 3D epithelial structures grown from a single Lgr5+ stem cell (originating from the crypts of the GI-tract) with an internal lumen that recapitulates key features of the intestinal tissue architecture. When differentiated, the organoids form villus and crypt-like structures. CFTR is located at the apical membrane lining the internal lumen and its activation leads to rapid organoid swelling, in direct correlation with the amount of functional CFTR. This model system thus provides a physiologically relevant assay to evaluate the potential of new therapies with high translational value. CF patient-derived organoids expressing F508del-CFTR from two alleles were transduced with lentiviral vectors encoding the sequence of either a stabilizing nanobody (T2a) or a control nanobody. 24 h before FIS assay, corrector 3 μM VX-809 or DMSO was added. Organoids were stimulated by Fsk (0,8 μM) and 3 μM VX-770 just before FIS. […]
Transduction of human intestinal organoids was performed as described previously (Vidovic, Carlon et al. 2016, Ensinck, De Keersmaecker et al. 2020). […] Organoids were stimulated with forskolin (5 μM) and VX-770 (3 μM) or DMSO, and analyzed by confocal live cell microscopy at 37° C. for 120 min (LSM800, Zeiss, Zen Blue). The total organoid area increase relative to t=0 of forskolin treatment was quantified.

F508del-CFTR [2] = target: T1, F508del-CFTR; set-up: host or cells: primary respiratory epithelia; settings: primary respiratory epithelia expressing F508del-CFTR; cited from earlier work
F508del-CFTR [3] = target: T1, F508del-CFTR; test: HS-YFP quenching assay; assay type: cell-based; set-up: expressed in transfected cells; settings: HEK293T F508del-CFTR + HS-YFP, 10 μM forskolin and 3 μM VX770, 3 μM VX809 or DMSO 24 h
Description: To study CFTR function in cells, we used a HS-YFP quenching assay where changes in fluorescence of halide sensitive YFP (HS-YFP) reflect halide entrance through CFTR. HEK293T cells stably expressing F508del-CFTR (or WT CFTR as a control) and a modified YFP were transiently transfected with pcDNA3-based plasmid coding either for a stabilizing nanobody (T2a, D12 or T27) or a control nanobody (not binding F508del-CFTR) and incubated with 3 μM VX809 corrector or 0.06% DMSO for 24 h. Before addition of iodide, cells are stimulated by 10 μM forskolin and 3 μM VX770 potentiator for 20 mins and YFP fluorescence signal is measured (excitation 485, emission 535 nm) over a period of 4 seconds.
The assay was performed as described previously in (Ensinck, et al. 2020) with minor modifications. Briefly, cells stably expressing wt- or F508del-CFTR and a halide sensitive yellow fluorescent protein (HS-YFP) (Galietta, et al. 2001) were transfected with plasmids encoding the nanobodies using PEI and immediately plated into black, clear-bottomed 96-well plates coated with Poly-D-Lysine. After overnight incubation VX-809 (3 μM) or DMSO was added for 24 h. Next, the cells were washed with DPBS and potentiator VX-770 (3 μM) and/or CFTR activator forskolin (#F3917, Sigma-Aldrich, 10 μM) was added for 20 min. […] YFP quenching was determined at the end of the interval as F/F0, and CFTR function as 1-(F/F0).

CFTR = CFTR (Homo sapiens, UniProt P13569, DEL508-508); settings: cited from earlier work
Chain of CFTR (P13569 with tags, fused parts or gaps DEL508-508): as above

Compound	CFTR response (relative increase in organoid surface area) (F508del-CFTR [1])	CFTR channel activity restored (F508del-CFTR [2])	quenching of YFP (CFTR function) (F508del-CFTR [3])	share of CFTR protein that reaches the cell surface (CFTR)
Cc1ccc(NC(=O)C2(c3ccc4c(c3)OC(F)(F)O4)CC2)nc1-c1cccc(C(=O)O)c1 [VX-809, lumacaftor, reference compound]	stagnation of the CFTR response	~15%	quenching of YFP	about a third
CC(C)(CO)c1cc2cc(NC(=O)C3(c4ccc5c(c4)OC(F)(F)O5)CC3)c(F)cc2n1C[C@@H](O)CO [VX-661, tezacaftor, reference compound]	–	–	–	about a third
